Experimental data taken from US20030187003A1, “Pharmaceutical compositions and method for the treatment of retroviral infections” (priority 2000, published 2003).

Key:
[1] = cytotoxicity, viability of mock-infected cells; format: cell-based; settings: human, viability of mock-infected MT-4 cells
Protocol: Cytotoxicity of these compounds was determined in parallel by measuring the viability of mock-infected MT-4 or C8166 cells 5 days post-infection. The antiviral activity and cytotoxicity data, including average values and standard deviations for at least two separate experiments, are depicted in Table 2, wherein: CC50 represents the 50% cytotoxic concentration, i.e. the concentration that reduces by 50% the viability of MT-4 cells.

HIV-1 integrase = biological target: T1, HIV-1 integrase (Human immunodeficiency virus type 1 group M subtype B, UniProt P04585); experiment: HIV-1 integrase binding assay, biosensor (BIAcore); settings: preincubation of integrase with 93 μM compound, 37° C.
T1 construct: HIV-1 integrase (100 μl of a 33 μM solution)
Protocol: Binding experiments were carried out using biosensor technology on BlAcore2000 (Biacore) and sensor chips SA™ with pre-immobilized streptavidin. The binding experiment was carried out at 37° C. following the procedures of the manufacturer. The binding buffer B (20 mM HEPES at pH 7.5) contained 50 mM NaCI, 10 mM MgCl2 and 5 mM DTT. First, the 3′-biotinylated oligonucleotide 5′-[…]-3′ was bound to the sensor chip. Subsequently, the complementary 35-mer 5′-[…]-3′ was hybridized to the captured oligonucleotide, resulting in an integrase recognition sequence at the free end. HIV-1 integrase (100 μl of a 33 μM solution) diluted 10-fold in dilution buffer (10 mM Tris.HCl, pH7.5/750 mM NaCl/10% glycerol/1 mM β-mercaptoethanol) and another 10-fold in buffer B, was injected at a final concentration of 330 nM with a flow rate of 10 μl/minute passing first a blank channel and then the channel with the specific oligonucleotide. A specific adsorption in the blank channel was subtracted.

[2] = biological target: T2, recombinant His-tagged HIV-1 integrase (Human immunodeficiency virus type 1 group M subtype B, UniProt P04585); experiment: HIV-1 integrase strand transfer assay, oligonucleotide-based
SIV (MAC251) = experiment: inhibition of virus-induced cytopathicity in MT-4 cells, SIV (MAC251); format: cell-based, Simian immunodeficiency virus; settings: Simian immunodeficiency virus, MT4, 120 h, read-out: EC50 SIV MAC251
HIV-1 L2 = format: cell-based
[3] = biological target: T2, recombinant His-tagged HIV-1 integrase; experiment: HIV-1 integrase 3′-processing assay, oligonucleotide-based
Protocol: Reactions were started by the addition of the enzyme. Inhibitors were incubated shortly with the reaction components before the addition of integrase. Reactions were allowed to proceed at 37° C. for 7 minutes and stopped by the addition of formamide loading buffer (95% formamide, 30 mM ethylenediamine tetraacetic acid, 0.1% xylene cyanol, 0.1% bromophenol blue, 0.1% sodium dilaurylsulfate SDS). In the overall integration assay, this reaction was allowed to proceed for 60 minutes before the addition of a formamide dye.

HIV-2 (ROD) = experiment: inhibition of virus-induced cytopathicity in MT-4 cells, HIV-2 (ROD); format: cell-based; settings: Human immunodeficiency virus 2, MT4, 120 h, read-out: EC50 HIV-2 ROD

O=[N+]([O-])c1ccc(C2c3c(O)nc(S)nc3Oc3nc(S)nc(O)c32)cc1 [compound H, 5-(4-nitrophenyl)-2,8-dithiol-4,6-dihydroxy-5H-pyrano[2,3-d:6,5-d′]dipyrimidine]
CC50 at 5 days [1]: 121 µM | binding of integrase to the DNA (HIV-1 integrase): completely abolished | IC50 [2]: 16.1 ± 10.7 µM | effect on the DNA strand transfer reaction ([2]; in words): strong inhibitory effect | EC50 (SIV (MAC251)): 5.5 ± 0.9 µM | EC50 (HIV-1 L2; Human immunodeficiency virus 1): 6 ± 2.3 µM | fold increase in EC50 (HIV-1 L2; L2 versus wild type strain L1): 1.6 | IC50 [3]: 0.9 ± 0.4 µM | inhibition of the 3-processing reaction ([3]; in words): inhibited | EC50 (HIV-2 (ROD)): 30 ± 6.2 µM
